Measurements: patent US9040717B2, “Pyrazole-amide compounds and pharmaceutical use thereof” (JAPAN TOBACCO INC., priority 2013, dated 2015)

How the values were obtained:
liver PDH activity = experiment: Ex vivo PDH activation assay, liver; format: in vivo, Sprague-Dawley rats; conditions: non-fasting SD rats, vehicle 13 ± 3, mean ± S.D. (n = 3)
Method: (§1) The action of test compound on tissue PDH activity was evaluated. NADH production was detected via p-iodonitrotetrazolium violet (INT)-coupled system to measure PDH activity.
(§2) Normal male Sprague-Dawley rats were randomly allocated to the vehicle group and the test compound groups. The vehicle (0.5% aqueous methylcellulose solution, 5 mL/kg) or the test compound was orally administered to the rats. At 5 or 20 hr after administration, the rats were anesthetized with an intraperitoneal injection of sodium pentobarbital (60 mg/kg), and liver slices and epididymal adipose tissues were collected.
(§3) To the liver slices were rapidly added 9 volumes of ice-cold homogenization buffer (0.25 mol/L sucrose, 5 mmol/L tris(hydroxymethyl)aminomethane hydrochloride (pH 7.5), 2 mmol/L EDTA), and the mixtures were homogenized using a Polytron homogenizer. The homogenates were centrifuged at 600×g, 4° C. for 10 min to obtain the supernatant. The supernatants (1 mL) were centrifuged at 16,000×g, 4° C. for 10 min to collect the precipitates. The precipitates were washed by resuspension in the homogenization buffer (1 mL) and centrifuged in the same manner. The precipitates were frozen with liquid nitrogen and stored at −80° C. as the liver mitochondrial fraction.
(§4) The mitochondrial fractions were thawed and suspended with the sample buffer (0.25 mol/L sucrose, 20 mmol/L tris(hydroxymethyl)aminomethane hydrochloride (pH 7.5), 50 mmol/L potassium chloride, and 1 mL/L 4-(1,1,3,3-tetramethylbutyl)phenyl-polyethylene glycol (Triton X-100)). Active PDH activity (PDHa activity) and total PDH activity (PDHt activity) were measured to evaluate the PDH activity. For the measurement of the PDHt activity, equal amounts of the mitochondrial suspension and the activation buffer (0.25 mol/L sucrose, 20 mmol/L tris(hydroxymethyl)aminomethane hydrochloride (pH 7.5), 50 mmol/L potassium chloride, 1 mL/L Triton X-100, 4 mmol/L calcium chloride, 40 mmol/L magnesium chloride, 10 mmol/L sodium dichloroacetate) were mixed, and the mixtures were incubated at 37° C. for 10 min. Forty microliters of the mitochondrial suspensions diluted with a sample buffer were added to a 96-well microplate for activity measurement and blank measurement. Then 180 μL of the reaction mixture (0.056 mmol/L potassium phosphate buffer (pH 7.5), 5.6 mmol/L DL-carnitine, 2.8 mmol/L NAD, 0.22 mmol/L thiamin pyrophosphate, 0.11 mmol/L Coenzyme A, 1.1 mL/L Triton X-100, 1.1 mmol/L magnesium chloride, 1.1 g/L bovine serum albumin, 0.67 mmol/L INT, 7.2 μmol/L phenazine methosulfate, 28 mmol/L sodium oxamate) was added to each well, and then 20 μL of 50 mmol/L sodium pyruvate for activity measurement or water for blank measurement were added. The mixtures were incubated at room temperature under shading. The absorbances at 500-750 nm, which were attributable to reduction of INT, the final electron acceptor, were measured using a microplate reader over time and the changes in the absorbance were calculated. The PDH activity was calculated by subtraction of the change in absorbance of the blank well from that of the activity measurement well. The percentage of the PDHa activity to the PDHt activity was calculated and taken as an index of the PDH activation.

[1] = tested on: adipose tissue PDH activity; experiment: Ex vivo PDH activation assay, adipose tissue; format: in vivo, Sprague-Dawley rats; conditions: non-fasting SD rats, vehicle 31 ± 10, mean ± S.D. (n = 3)
Method: as §1, §2
as §3, with “adipose tissues” for “liver slices”, “3” for “9”, “of an” for “of”, “buffer,” for “buffer (0.25 mol/L sucrose, 5 mmol/L tris(hydroxymethyl)aminomethane hydrochloride (pH 7.5), 2 mmol/L EDTA),”, “supernatants” for “supernatants (1 mL)”, “adipose tissue” for “liver”
as §4

[2] = biological target: hERG current in hERG-transfected HEK293 cells (Homo sapiens (Human), UniProt Q12809); experiment: hERG whole cell patch clamp test; format: cell-based
Method: Using human ether-a-go-go related gene (hERG)-transfected HEK293 cells (Cytomyx Limited), an influence on hERG current was examined according to the whole cell patch clamp technique. The hERG-transfected HEK293 cells were passaged using a CO2 incubator (BNA-111, TABAI ESPEC CORP.) under the set conditions of 37° C., 5% CO2, saturated humidity. Culture containers used were Collagen Type I Coated 75 cm^2 flask (4123-010, AGC TECHNO GLASS CO., Ltd.) and Collagen Type I Coated 35 mm culture dish (4000-010, AGC TECHNO GLASS CO., Ltd.). The culture medium used was E-MEM (Eagle Minimum Essential Medium (Earle's Salts, Nikken biomedical laboratory) added with 10% FCS (Fetal calf serum, BioWest, L.L.C.) and 1% MEM Non-Essential Amino Acids Solution (NEAA, Invitrogen Corporation). Geneticin for the selection of hERG gene expressing cells was added thereto to a concentration of 400 μg/mL. As the cells for the measurement, 3×10^4 hERG-transfected HEK293 cells were plated on a 35 mm culture dish 4 to 7 days before measurement of the hERG current. The culture dish produced for the measurement contained the above-mentioned culture medium without geneticin (Invitrogen Corporation).
The highest evaluation concentration of each compound was determined from the highest concentration at which precipitation was not found in the standard extracellular fluid (NaCl: 140 mmol/L, KCl: 2.5 mmol/L, MgCl2:2 mmol/L, CaCl2: 2 mmol/L, HEPES: 10 mmol/L, glucose: 10 mmol/L (adjusted to pH 7.4 with Tris-base)). As the application method, each solution to be applied was ejected from a Y-tube having a tip diameter of about 0.25 mm, which was adjacent (about 2 mm) to the cells, and applied to the cells. The ejection rate was about 0.4 mL/min.
The experiment was performed at room temperature under a phase contrast microscope. The 35 mm culture dish plated with the cells was set on a measurement apparatus, and the standard extracellular fluid was continuously applied to the cells from the Y-tube. A glass electrode for the measurement was filled with an intracellular fluid (Potassium Gluconate: 130 mmol/L, KCl: 20 mmol/L, MgCl2: 1 mmol/L, ATP-Mg: 5 mmol/L, EGTA: 3.5 mmol/L, HEPES: 10 mmol/L (adjusted to pH 7.2 with Tris-base)). A conventional whole cell patch clamp method was applied to the cells, and the maintenance electric potential was set to −80 mV. Under a fixed electric potential, the whole cell current was amplified by an amplifier for patch clamp (AXOPATCH-200B, Axon Instruments, Inc.), and the data was loaded into a computer (IMC-P642400, Intermedical Co., Ltd.) using a data acquisition analysis software (pCLAMP 9.2, Axon Instruments, Inc.).
The measurement of the hERG current was performed in the following two steps. In both cases, the hERG current was initiated by giving a command potential (maintenance electric potential −80 mV, prepulse +20 mV, 1.5 sec, test-pulse −50 mV, 1.5 sec).
Step (1): The above-mentioned command potential was given at 0.1 Hz for 2 min.
Step (2): The above-mentioned command potential was subjected to P/3 subtraction of pCLAMP 9.2 to remove leak current. This was repeated three times and an average thereof was taken as hERG current.
Subsequent to step (1), Step (2) was performed (about 3 min), and the maximum tail current obtained by applying a test-pulse to the hERG current obtained by the method of step (2) was taken as hERG current value. Hereafter, the operations of (1) and (2) were alternately repeated until completion of the experiment and the hERG current value was measured.
Stable hERG current value was recorded three times (about 10 min), and the standard extracellular fluid was instantaneously exchanged with each application fluid. The hERG current value was measured three times (about 10 min) in the same manner during perfusion of the application fluid, and the current value obtained by the 3rd measurement was taken as hERG current value after perfusion of the application fluid. […]

[3] = Table 2, 5 hr after oral 3 mg/kg
[4] = Table 2, 20 hr after oral 3 mg/kg

Sequence of hERG current in hERG-transfected HEK293 cells (Q12809 whole entry): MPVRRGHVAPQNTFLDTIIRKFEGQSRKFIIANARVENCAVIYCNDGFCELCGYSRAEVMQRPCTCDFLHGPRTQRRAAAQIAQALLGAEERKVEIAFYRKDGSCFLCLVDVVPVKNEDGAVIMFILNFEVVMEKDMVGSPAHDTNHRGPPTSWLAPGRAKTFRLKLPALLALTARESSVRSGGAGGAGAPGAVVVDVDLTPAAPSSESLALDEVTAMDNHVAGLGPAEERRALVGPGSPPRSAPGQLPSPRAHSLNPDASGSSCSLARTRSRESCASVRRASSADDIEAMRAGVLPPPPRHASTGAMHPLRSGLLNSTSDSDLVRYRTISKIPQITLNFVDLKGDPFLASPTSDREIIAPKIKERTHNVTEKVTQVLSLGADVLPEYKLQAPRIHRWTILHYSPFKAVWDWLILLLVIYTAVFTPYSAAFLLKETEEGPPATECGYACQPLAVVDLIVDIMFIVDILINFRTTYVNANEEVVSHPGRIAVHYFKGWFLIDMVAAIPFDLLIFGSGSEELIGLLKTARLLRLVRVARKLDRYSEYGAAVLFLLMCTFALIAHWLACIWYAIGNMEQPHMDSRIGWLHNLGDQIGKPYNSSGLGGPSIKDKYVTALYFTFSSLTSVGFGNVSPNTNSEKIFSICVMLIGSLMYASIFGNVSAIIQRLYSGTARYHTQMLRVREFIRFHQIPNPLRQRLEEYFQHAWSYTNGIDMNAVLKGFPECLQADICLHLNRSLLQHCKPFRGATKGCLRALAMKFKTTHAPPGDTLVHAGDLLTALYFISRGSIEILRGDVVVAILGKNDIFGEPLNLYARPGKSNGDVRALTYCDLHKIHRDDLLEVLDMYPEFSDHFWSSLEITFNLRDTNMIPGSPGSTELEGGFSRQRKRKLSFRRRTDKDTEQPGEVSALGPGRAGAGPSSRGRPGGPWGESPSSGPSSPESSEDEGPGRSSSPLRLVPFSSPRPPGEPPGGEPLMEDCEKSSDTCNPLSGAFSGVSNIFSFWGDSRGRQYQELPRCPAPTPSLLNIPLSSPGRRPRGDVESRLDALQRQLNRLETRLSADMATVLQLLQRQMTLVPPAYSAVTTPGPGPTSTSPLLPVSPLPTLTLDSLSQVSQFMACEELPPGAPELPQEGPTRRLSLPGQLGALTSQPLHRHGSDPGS

Row | SMILES | PDHa activity (% of PDHt activity) (liver PDH activity; [3]) | PDHa activity (% of PDHt activity) (liver PDH activity; [4]) | PDHa activity (% of PDHt activity) [1, 3] | PDHa activity (% of PDHt activity) [1, 4] | hERG current Inhibition rate (%) ([2]; 3 μmol/L) | hERG current Inhibition rate (%) ([2]; 30 μmol/L)
1 | CC(C)(O)COc1cc(-c2cnn(CCO)c2)c2c(c1)[C@@](O)(C(F)(F)F)c1ccccc1-2 [Compound (C), (9R)-4-[1-(2-Hydroxyethyl)-1H-pyrazol-4-yl]-2-(2-hydroxy-2-methylpropoxy)-9-(trifluoromethyl)-9H-fluoren-9-ol] | 44 ± 5 % of PDHt activity | 13 ± 3 % of PDHt activity | 53 ± 4 % of PDHt activity | 28 ± 7 % of PDHt activity | 11.5 | 69.0
2 | CC(C)(C(N)=O)n1cc(-c2cc(F)cc3c2-c2ccccc2[C@]3(O)C(F)(F)F)cn1 [Compound (D), 2-{4-[(9R)-2-Fluoro-9-hydroxy-9-(trifluoromethyl)-9H-fluoren-4-yl]-1H-pyrazol-1-yl}-2-methylpropanamide] | 41 ± 15 % of PDHt activity | 20 ± 1 % of PDHt activity | 43 ± 7 % of PDHt activity | 24 ± 3 % of PDHt activity | 9.4 | 67.5
